Data set [1] has as its target Inosine-5'-monophosphate dehydrogenase 1 (Homo sapiens, UniProt P20839). Briefly: Inhibition of human IMPDH1 expressed in Escherichia coli strain BL21(DE3) after 60 mins.
Data set [2] deals with Inosine-5'-monophosphate dehydrogenase 2 (Homo sapiens, UniProt P12268). The data set is described as follows: Inhibition of human IMPDH2 expressed in Escherichia coli strain BL21(DE3) after 60 mins.
Data set [3] is filed under the species Homo sapiens. The data set is described as follows: Selectivity ratio of IC50 for human IMPDH1 to IC50 for human IMPDH2.
Data set [4] deals with K562. Briefly: Cytotoxicity against human K562 cells after 72 hrs by trypan blue exclusion assay. The format is functional, cell-based. Particulars: K562, 72 h.
Data set [5] has as its system IMPDH2. The data set is described as follows: Selectivity ratio of IC50 for human K562 cells to IC50 for human IMPDH2. The format is ADME, cell-based. The note with it: K562 cells versus IMPDH2 enzyme, read-out: Ratio IC50.
Data set [6] deals with K562. The data set is described as follows: Induction of human K562 cells differentiation assessed as hemoglobin/genomic DNA level at 0.5 uM after 72 hrs relative to untreated control. The format is functional.
Data set [7] deals with K562. Briefly: Induction of human K562 cells differentiation assessed as hemoglobin/genomic DNA level at 1 uM after 72 hrs relative to untreated control. The class given is functional.
Data set [8] has as its system K562. Briefly: Induction of human K562 cells differentiation assessed as hemoglobin/genomic DNA level at 2 uM after 72 hrs relative to untreated control. The format is functional.
Data set [9] has as its system K562. The data set is described as follows: Induction of human K562 cells differentiation assessed as hemoglobin/genomic DNA level at 4 uM after 72 hrs relative to untreated control. The format is functional.
The test system of data set [10] is K562. The data set is described as follows: Induction of human K562 cells differentiation assessed as hemoglobin/genomic DNA level at 8 uM after 72 hrs relative to untreated control. The format is functional.
Data set [11] in a line: Inhibition of HDAC.
Data set [12] has as its system HeLa. Briefly: Antiproliferative activity against human HeLa cells. The format is functional, cell-based.
The test system of data set [13] is K562. The data set is described as follows: Induction of human K562 cells differentiation assessed as hemoglobin/genomic DNA level at 16 uM after 72 hrs relative to untreated control. The format is functional.
For data set [14], the system named is K562. Briefly: Induction of human K562 cells differentiation assessed as hemoglobin/genomic DNA level at 32 uM after 72 hrs relative to untreated control. The format is functional.
Data set [15] relates to K562. The data set is described as follows: Induction of human K562 cells differentiation assessed as hemoglobin/genomic DNA level at 0.25 uM after 72 hrs relative to untreated control. The format is functional.

Sequence of Inosine-5'-monophosphate dehydrogenase 1 (P20839 whole entry): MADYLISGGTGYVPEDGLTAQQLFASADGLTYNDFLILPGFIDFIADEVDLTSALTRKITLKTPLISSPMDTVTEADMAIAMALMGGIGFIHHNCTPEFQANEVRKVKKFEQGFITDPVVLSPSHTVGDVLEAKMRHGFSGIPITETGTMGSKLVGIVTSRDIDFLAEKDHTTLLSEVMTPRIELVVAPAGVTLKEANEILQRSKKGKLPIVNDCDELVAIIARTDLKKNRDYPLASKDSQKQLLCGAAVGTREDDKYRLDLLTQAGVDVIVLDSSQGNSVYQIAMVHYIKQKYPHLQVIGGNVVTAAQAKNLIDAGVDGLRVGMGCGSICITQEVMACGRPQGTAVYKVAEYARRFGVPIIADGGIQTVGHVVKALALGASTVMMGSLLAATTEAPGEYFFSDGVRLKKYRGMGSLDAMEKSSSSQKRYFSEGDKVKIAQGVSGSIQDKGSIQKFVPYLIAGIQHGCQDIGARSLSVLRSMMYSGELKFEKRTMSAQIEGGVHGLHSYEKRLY

For the compound `COc1c(C)c2c(c(OC(C)=O)c1C/C=C(\C)CCC(=O)O)C(=O)OC2`, the IC50 (usually the point on the concentration scale where inhibition reaches its midpoint) worked out at 4100 nM in data set [1], 4100 nM in data set [2] and 590 nM in data set [4]. In data set [3], the Ratio IC50 was 1. Also, in data set [5], the selectivity ratio was 0.14. In addition, the Ratio in data set [6] came to 1.8; in data set [7], 2.9; in data set [8], 4.2; in [9] it was 5.3; in data set [10], 6.
For `COc1c(C)c2c(c(OC)c1C/C=C(\C)CCC(=O)NO)C(=O)OC2`, the results for the IC50 in data set [11] and in data set [12] were 900 nM and 50000 nM, respectively.
The like results for `CCCCCCCCCCCCOc1c(C/C=C(\C)CCC(=O)NO)c(OC)c(C)c2c1C(=O)OC2` were, in that order, 500 nM and 1000 nM.
The like results for `COc1c(C)c2c(c(OC(C)=O)c1C/C=C(\C)CCC(=O)NO)C(=O)OC2` were, in that order, 900 nM and 1500 nM.
As to `COc1c(C)c2c(c(O)c1C/C=C(\C)CCCO)C(=O)OC2`, the IC50 in [1] came to 770 nM; in data set [2], 790 nM; in data set [4], 3900 nM. Besides, in data set [3], the Ratio IC50 came to 0.97. In addition, the selectivity ratio in data set [5] was 4.9. The Ratio in data set [8] came out at 0.7; in data set [9], 1.3; in [10] it was 2.5; in data set [13] it was 3.8; in data set [14] it was 4.7.
Turning to `COc1c(C)c2c(c(O)c1C/C=C(\C)CCC(=O)O)C(=O)OC2` [MYCOPHENOLIC ACID], 19 nM corresponded to half-maximal inhibition in [1] (IC50).
As for `C/C(=C\Cc1c(O)c(C)c2c(c1O)C(=O)OC2)CCC(=O)O`, the IC50 is 150 nM in data set [1], 170 nM in [2] and 8200 nM in data set [4]. For the same compound, the Ratio IC50 in [3] stood at 0.88. The selectivity ratio in data set [5] turned out to be 48. The Ratio is listed as 1.4 in data set [7]; 1.1 in data set [8]; 1.1 in data set [9]; 1.8 in data set [13]; 3.1 in data set [14].
For the compound `COc1c(C)c2c(c(OC)c1C/C=C(\C)CCC(=O)O)C(=O)OC2`, the figures for the IC50 in data set [1], in data set [2] and in data set [4] were 67000 nM, 72000 nM and over 50000 nM, respectively. The Ratio IC50 in data set [3] is 0.93. Further, the Ratio was 1.2 in [8]; 1.1 in data set [9]; 1.1 in [10]; 1.4 in data set [13]; 1 in [14].
Take `COC(=O)CC/C(C)=C/Cc1c(O)c2c(c(C)c1OC)COC2=O`: the half-maximal inhibitory concentration (IC50) in [1] was 1500 nM; in data set [2], 1400 nM; in [4], 730 nM. Also, the Ratio IC50 in data set [3] came to 1.1. Also, in data set [5], the selectivity ratio was determined as 0.52. The Ratio in [15] was found to be 1; in [6], 1; in data set [7], 2.1; in [8], 3.5; in data set [9], 4.9; in data set [10], 5.6.
For the compound `COc1c(C)c2c(c(O)c1C/C=C(\C)CCC(=O)NO)C(=O)OC2` [MYCOPHENOLIC HYDROXAMIC ACID], the IC50 in data set [11] came out at 1000 nM; in data set [12], 2000 nM; in data set [1], 350 nM; in [2] it was 420 nM; in data set [4] it was 2100 nM. For the same compound, in data set [3], the Ratio IC50 was found to be 0.83. Besides, in data set [5], the selectivity ratio was determined as 5. Further, the Ratio came to 0.8 in data set [7]; 1 in data set [8]; 2.9 in data set [9]; 3.2 in data set [10]; 1.8 in data set [13]; 1.7 in data set [14].

Values taken from ChEMBL document CHEMBL1287663 (Bioorg Med Chem, 2010).
